We go through one compound from publication PMC2685987, “Integrating Statistical Predictions and Experimental Verifications for Enhancing Protein-Chemical Interaction Predictions in Virtual Screening” (PLoS Computational Biology, 2009).

The experiment deals with T1, MBP-ARC (Maltose Binding Protein tagged Androgen Receptor C-termini) (Homo sapiens, UniProt P10275).
T1 construct: made in house; host or cells: E. coli DH5a
T1 sequence (P10275 609-919): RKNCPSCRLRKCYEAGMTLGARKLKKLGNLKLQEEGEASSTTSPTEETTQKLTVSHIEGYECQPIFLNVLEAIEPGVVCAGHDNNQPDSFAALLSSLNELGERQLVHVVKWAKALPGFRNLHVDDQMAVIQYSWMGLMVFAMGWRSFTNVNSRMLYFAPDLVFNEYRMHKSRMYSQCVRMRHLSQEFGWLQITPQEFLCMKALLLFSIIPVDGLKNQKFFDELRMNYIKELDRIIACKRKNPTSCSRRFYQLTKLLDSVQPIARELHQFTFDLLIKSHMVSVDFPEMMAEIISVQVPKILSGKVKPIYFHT
The experiment is described as follows: in vitro binding assay - hydroxyapatite method ([3H]-DHT competition). Conditions: concentration of unlabeled test compound at which 50% of the [3H]-DHT is still bound to MBP-ARC; 2 nM [3H]-DHT, 50 µg/ml MBP-ARC, three hours.

Each structure is given as a SMILES string.

For orientation: IC50 means the concentration that gives 50% inhibition. Read a high IC50 as weaker potency.

Description: 1.9 The in vitro binding assay - hydroxyapatite method
800 mM NaCl, 10 % glycerol, 1mg/ml BSA and 2mM DTT to obtain a 100 l mixture solution.
mixture solution was incubated at 4 for 3 hours.
After incubation, BioGel HT (Bio-Rad Laboratories) was added to the solution and incubated on ice
for 15 minutes, during which vortexing was done every 5 minutes. The incubated solution was centrifuged
at 1,000 rpm for a minute and a supernatant was removed.
A wash buﬀer consisting of 40 mM Tris-HCl pH 7.6, 100 mM KCl, 1mM EDTA and 1mM EGTA and
cooled on ice was added to the precipitate by 1 ml and mixed. The produced solution was centrifuged
at 1,000 rpm and a supernatant was removed. This process was repeated three times.
The collected precipitate was suspended in 3 ml Aquasol (New England nuclear Corp.). Radioactivity
of the suspended solution in a scintillation vial (Perkin Elmer) was measured by a liquid scintillation
test compounds was regarded as IC50 of the test compound.

Consider `Cc1c(-c2ccc(NC(=O)C(C)(C)C)cc2)nc2ccc(Cl)cn12` [T5853872], for which the IC50 is 80 µM.
